Test results as given in US8609610B2, “Inhibitors of the trypsin-like site of the proteasome and methods of use thereof” (Trustees of Dartmouth College, priority 2011, dated 2013).
Read-outs that look alike come from different tables or passages of the source.

Experiments:
[1] = system: trypsin-like sites (β2) of proteasome in MM cells; assay: PROTEASOMEGLO assay of proteasome inhibition in MM cells; format: cell-based
[2] = system: myeloma cells U266 and AMO-1; assay: Cytotoxicity in combination with β5-selective proteasome inhibitors; format: cell-based; conditions: PR671A with bortezomib or PR523
[3] = system: bortezomib-adapted cell lines AMO-1a and HL-60a; assay: Combination in bortezomib-adapted cell lines; format: cell-based; conditions: in combination with bortezomib or PR523
[4] = system: bortezomib-refractory primary myeloma cells from patients; assay: Combination in bortezomib-refractory primary myeloma cells; format: cell-based; conditions: in combination with bortezomib or PR523; primary cells from three patients
RPMI-8226 cells = assay: ALAMAR BLUE cell viability assay; format: cell-based; conditions: RPMI-8226 cells
Outline: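 Myeloma lines were grown in RPMI-1640 with 10% FBS; viability of myeloma cells was read by ALAMAR BLUE mitochondrial dye conversion. PBMNC viability used CELL TITER-GLO ATP luminescence. Caspase-3/7 activity in NCI-H929 and MM1.R was measured with the APO-ONE homogeneous assay.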

β5 proteasome subunit = target: T1, β5 proteasome subunit (Homo sapiens, UniProt P20618+P28074); assay: Competition assay in HEK-293T cell lysate with MV151; format: biochemical; conditions: HEK-293T lysate, 50 μM
T1 construct: Whole cell lysates of HEK-293T or EL-4 cells were made by sonication; endogenous in cells; host or cells: HEK-293T
Method: (§1) Whole cell lysates of HEK-293T or EL-4 cells were made by sonication in 3 volumes of lysis buffer containing 50 mM Tris pH 7.5, 1 mM DTT, 5 mM MgCl2, 250 mM sucrose, 2 mM ATP, 0.025% digitonin. Protein concentration was determined by the Bradford assay. Cell lysates (13.5 μg total protein for HEK lysates and 9 μg total protein for EL-4 lysates) were exposed to the inhibitors for 1 hour at 37° C. prior to incubation with MV151 (0.5 μM) or BODIPY-TMR-epoxomicin (0.5 μM) for an additional 1 hour at 37° C. Reaction mixtures were boiled with Laemmli's buffer containing (3-mercaptoethanol for 5 minutes before being resolved by 12.5% SDS-PAGE. In-gel detection of residual proteasome activity was performed in the wet gel slabs directly on the TYPHOON Variable Mode Imager (Amersham Biosciences) using the Cy3/Tamra settings (λex 532 nm, λem 560 nm) to detect MV151, BODIPY-TMR-epoxomicin and Cy2/Fam settings (λex 488 nm, λem 520 nm) to detect compounds 39 and 59.
(§2) The inhibition potential of the inhibitors for each of the catalytically active subunits was assessed in competition assays employing extracts of human embryonic kidney cells (HEK-293T) and mouse lymphoma cells (EL-4) in combination with the fluorescent broad spectrum proteasome probe MV151 (Verdoes, et al. (2006) Chem. Biol. 13:1217-1226). Competitive inhibition of a proteasome active site is reflected by the disappearance of the corresponding band on a gel.

[5] = target: β2 (trypsin-like site) of proteasome in HEK-293T cells (Homo sapiens, UniProt P49720+Q99436); assay: Competition assay in living HEK-293T cells with activity-based probe; format: cell-based; conditions: 5 μM
Method: (§3) Proteasome inhibition in MM cells was measured with luminogenic substrates using PROTEASOMEGLO assay (Promega). […] An aliquot of culture was pelleted and medium was removed and replaced with PBS. The resulting cell suspension was mixed with luminogenic substrates in the manufacturer-provided lysis/assay buffer. After 3 minutes mixing on an orbital shaker, the plate was incubated in the dark for additional 17 minutes, followed by the measurements of the luminescence, performed in triplicate for each substrate/data point. Data were analyzed as for purified proteasomes. […] Cells (1×10^6 per well of a 6-well plate) were incubated with the inhibitors for 4 hours at 37° C. and this was followed by a 2 hour incubation with 5 μM BODIPY-TMR-epoxomicin. Subsequently, the medium was removed and the cells were washed with PBS and harvested. […] The supernatant was collected and the protein concentration was determined by the Bradford assay, and used to normalize gel loading. The samples were analysed by SDS-PAGE and fluorescent densitometry as described for competition experiment in cell lysates. IC50 values were calculated from three independent experiments using […] PRISM software.
(§4) Human embryonic kidney cells (some 1×10^6) were cultured in 6-well plates in DMEM containing 10% fetal calf serum, 10 units/mL penicillin and 10 μg/mL streptomycin in a 7% CO2 humidified incubator at 37° C. overnight. Part of the medium was taken and to this was added the appropriate inhibitor in DMSO (1 μL of a 1,000× stock solution), after which the medium was added to the cells. The cells were incubated with the inhibitors for 4 hours at 37° C. and this was followed by addition of MV151 (1 μL of a 5 mM stock solution in DMSO) and incubation for 2 hours at 37° C. Next, the medium was removed and the cells were washed with PBS and harvested. […] The supernatant was collected and the protein concentration was determined by the Bradford assay. All samples were normalized to the same protein concentration with lysis buffer.

Cathepsin B, H, L, S = assay: Cathepsin activity with pan-cathepsin substrate Z-FR-amc; format: cell-based; conditions: NCI-H929 cells, 6 hour treatment
Outline: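 Extracts of cytosol-less cells were used throughout. Cathepsins B, H, L and S were assayed with the fluorogenic Z-FR-amc substrate at pH 6.0. Cathepsin D was measured with the SENSOLYTE 520 fluorometric kit.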

[6] = target: T2, trypsin-like sites (β2) of proteasome in MM cells (Homo sapiens, UniProt Q99436); assay: PROTEASOMEGLO assay of proteasome inhibition in MM cells; format: cell-based; conditions: 6 hours, >>30 no inhibition at 30 μM, >30 inhibition 10-50% at 30 μM, read-out: IC50 for sites: Tr-L
T2 construct: endogenous in cells; host or cells: NCI-H929, RPMI-8226 and other MM cell lines
T2 sequence (Q99436 44-277): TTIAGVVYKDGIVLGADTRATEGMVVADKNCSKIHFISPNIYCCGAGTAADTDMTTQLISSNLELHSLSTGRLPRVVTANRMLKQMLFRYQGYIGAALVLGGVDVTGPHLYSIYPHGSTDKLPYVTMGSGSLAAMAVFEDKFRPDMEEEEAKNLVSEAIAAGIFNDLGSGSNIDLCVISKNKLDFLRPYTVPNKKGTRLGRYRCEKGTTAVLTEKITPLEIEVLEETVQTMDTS

β2i proteasome subunit = target: T3, β2i proteasome subunit (Mus musculus, UniProt O35955+Q9R1P1); assay: Competition assay in EL-4 cell lysate with MV151; format: biochemical; conditions: EL-4 lysate
T3 construct: Whole cell lysates of HEK-293T or EL-4 cells were made by sonication; endogenous in cells; host or cells: EL-4
Method: as §1
as §2, with “Competitive inhibition of a proteasome active site is reflected by the disappearance of the corresponding band on a gel.” left out

[7] = target: caspase-like site of 26S proteasomes (Oryctolagus cuniculus, UniProt A0A5F9DQW2); assay: Inhibition of purified 26S proteasomes, substrate Ac-nLPnLD-amc; format: biochemical, rabbit; conditions: >>30 no inhibition at 30 μM, >30 inhibition between 10 and 50% at 30 μM, read-out: IC50 for sites in 26S proteasomes: Casp-L
Chain of caspase-like site of 26S proteasomes (A0A5F9DQW2 1-212): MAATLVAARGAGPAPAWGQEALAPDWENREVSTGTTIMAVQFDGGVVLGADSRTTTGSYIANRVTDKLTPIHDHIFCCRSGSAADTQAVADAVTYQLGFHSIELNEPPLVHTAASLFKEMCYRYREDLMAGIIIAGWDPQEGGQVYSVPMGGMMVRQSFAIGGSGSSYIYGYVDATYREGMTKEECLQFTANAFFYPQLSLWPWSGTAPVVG
Method: 26S proteasomes were purified from rabbit muscle using known methods (Screen, et al. (2010) supra). […] NOVEX Bis-Tris gels (12%, Invitrogen) with MOPS running buffer were used for electrophoretic separation of catalytic subunits modified by active-site probes. Inhibition of active sites inside cells was assayed using luminescent PROTEASOMEGLO assay (Promega; Moravec, et al. (2009) Anal. Biochem. 387:294-302) according to known methods (Britton, et al. (2009) supra).

[8] = target: T4, caspase-like sites (β1) of proteasome in MM cells (Homo sapiens, UniProt P28072+Q99436); assay: PROTEASOMEGLO assay of proteasome inhibition in MM cells; format: cell-based; conditions: read-out: IC50 for sites: Casp-L, 6 hours, >>30 no inhibition at 30 μM, >30 inhibition 10-50% at 30 μM
T4 sequence (P28072 35-239): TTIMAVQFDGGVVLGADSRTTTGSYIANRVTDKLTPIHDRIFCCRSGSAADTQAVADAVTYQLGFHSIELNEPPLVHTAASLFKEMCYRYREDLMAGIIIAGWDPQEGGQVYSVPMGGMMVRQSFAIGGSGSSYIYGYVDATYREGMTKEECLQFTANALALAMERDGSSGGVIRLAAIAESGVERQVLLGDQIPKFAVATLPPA
T4 sequence (Q99436 44-277): T2 sequence (Q99436 44-277)

[9] = target: chymotrypsin-like activity of yeast 20S proteasome (Saccharomyces cerevisiae, UniProt P23724+P30656); assay: Yeast 20S core particle activity, substrate Suc-LLVY-amc; conditions: read-out: IC50 for yeast 20S proteasome: Chym-L
Method: Proteasomes were pre-incubated with inhibitors for minutes, and inhibitors were present during activity assays. Fluorescence was measured at λexc=360, λem=460 nm using a Varian Cary Eclipse Fluorescence Spectrophotometer (Agilent Technologies).

β2 proteasome subunit = target: T5, β2 proteasome subunit (Mus musculus, UniProt P70195+Q9R1P1); assay: Competition assay in EL-4 cell lysate with MV151; format: biochemical; conditions: 0.5 μM
T5 construct: Whole cell lysates of HEK-293T or EL-4 cells were made by sonication; endogenous in cells; host or cells: EL-4

[10] = target: β5 (chymotrypsin-like site) of proteasome in HEK-293T cells (Homo sapiens, UniProt P20618+P28074); assay: Competition assay in living HEK-293T cells with activity-based probe; format: cell-based; conditions: concentrations up to 50 μM
Method: as §3, §4

SMILES: CC(C)C[C@H](NC(=O)[C@H](Cc1ccccc1)N=[N+]=[N-])C(=O)N[C@@H](CC(C)C)C(=O)N[C@H](/C=C/S(C)(=O)=O)Cc1ccc(CN)cc1 [Compound 4a, N3Phe-Leu-Leu-Phe (4-CH2NH2) VS]
- difference in IC50 for trypsin-like activity between NCI-H929 and RPMI-8226 [1]: three-fold
- time to steady-state proteasome inhibition ([1]; RPMI-8226 cells): 1 h
- cytotoxicity of combination [2]: synergistic cytotoxicity
- effect on bortezomib resistance [3]: overcomes bortezomib resistance
- effect on bortezomib resistance [4]: overcomes bortezomib resistance
- sensitization to bortezomib (RPMI-8226 cells): sensitized RPMI-8226 cells to bortezomib
- sensitization to carfilzomib (RPMI-8226 cells): slightly more potent sensitizer to carfilzomib than was NC-022
- inhibition of β5 in cell lysate (β5 proteasome subunit): completely blocked β5
- inhibition of β2 activity in living cells ([5]; 4 hours): inhibiting (almost) all β2 activity
- inhibition of cathepsins (Z-FR-amc) (Cathepsin B, H, L, S): Partial inhibition of cathepsins

SMILES: Cc1c(O)cccc1C(=O)N[C@H](C(=O)N[C@@H](CO)C(=O)N[C@H](/C=C/S(C)(=O)=O)Cc1ccc(CN)cc1)C(C)C [Compound 48, HMB-Val-Ser-Phe (4-CH2NH2)-VS]
- difference in IC50 for trypsin-like activity between NCI-H929 and RPMI-8226 [1]: greater than ten-fold
- IC50 ([6]; NCI-H929 cells): 0.2 µM
- IC50 ([6]; RPMI-8226 cells): 3.2 µM
- concentration at which inhibition of β2i starts (β2i proteasome subunit): 5 µM
- IC50 [7]: 11 µM
- IC50 ([8]; NCI-H929 cells): > 30 µM
- IC50 ([8]; RPMI-8226 cells): > 30 µM
- IC50 [9]: 19.3 µM
- inhibition of β5 in cell lysate (β5 proteasome subunit): Only a part of the β5 activity was inhibited
- inhibition of β2 in EL-4 lysate (β2 proteasome subunit): almost completely blocked
- β2 band in living cells [5]: almost disappeared
- β5 in living cells [10]: not affected at all
- inhibition of cathepsins (Z-FR-amc) (Cathepsin B, H, L, S): did not cause any inhibition of cathepsins
